Biological target: T1, Tec kinase mediated tyrosine phosphorylation of FGF2 (GST-NΔ173 Tec) (Homo sapiens, UniProt P42680)
T1 construct: made in house; host or cells: Tec: SF9 insect cells (baculovirus); FGF2: E. coli
Experiment: In vitro Tec kinase mediated tyrosine phosphorylation of FGF2
Type: biochemical
Conditions: 50 μM compound in 1% DMSO; FIG. 6C
Protocol: FGF2 tyrosine phosphorylation and Tec kinase auto-phosphorylation were reconstituted with purified components based on a Western analysis using anti-phosphotyrosine antibodies directed against an FGF2-derived phosphopeptide. In vitro phosphorylation experiments were conducted in the absence (1% DMSO mock control) and presence of the small molecule inhibitors (#6, #14, #21; 50 μM in 1% DMSO) and control compounds (#18, #19; 50 μM in 1% DMSO) introduced in FIGS. 4 and 5. Fluorescent secondary antibodies were used to detect antigens employing the LI-COR Odyssey imaging platform. M=PageRuler Prestained Protein Ladder. For details, see Experimental Procedures.
(C) Quantification and statistical analysis of 5 independent experiments using the LI-COR Odyssey imaging platform. Following background normalization, the average of FGF2 tyrosine phosphorylation under mock conditions was defined as 100% activity. Standard deviations are shown. […]
FGF2 and STAP1 tyrosine phosphorylation as well as Tec kinase auto-phosphorylation were analyzed as described in the legend to FIG. 6 and in Experimental Procedures. […] Fluorescent secondary antibodies were used to detect and quantify antigens using the LI-COR Odyssey imaging platform. In panels D, E and F, following normalization based upon background signals detected in the absence of Tec kinase or ATP, the average of the signals detected under mock conditions was defined as 100% activity. […]
A Tec kinase in vitro phosphorylation assay was established to test the inhibitory potential and selectivity of the small molecule inhibitors reported in this study (FIGS. 6 and 7). […] Phosphorylation levels of GST-NΔ173 Tec (auto-phosphorylation), FGF2 and STAP1 were quantified by a Western analysis using polyclonal anti-phosphotyrosine antibodies raised against a FGF2-derived synthetic peptide containing a phosphorylated tyrosine residue (ANRpYLAMKED; SEQ ID NO: 1). […] Phosphorylation levels of STAP1 were monitored using a monoclonal anti-phosphotyrosine antibody (clone 4G10®, #05-321, Merck Millipore). […]

T1 sequence (P42680 174-631, stated change not applied): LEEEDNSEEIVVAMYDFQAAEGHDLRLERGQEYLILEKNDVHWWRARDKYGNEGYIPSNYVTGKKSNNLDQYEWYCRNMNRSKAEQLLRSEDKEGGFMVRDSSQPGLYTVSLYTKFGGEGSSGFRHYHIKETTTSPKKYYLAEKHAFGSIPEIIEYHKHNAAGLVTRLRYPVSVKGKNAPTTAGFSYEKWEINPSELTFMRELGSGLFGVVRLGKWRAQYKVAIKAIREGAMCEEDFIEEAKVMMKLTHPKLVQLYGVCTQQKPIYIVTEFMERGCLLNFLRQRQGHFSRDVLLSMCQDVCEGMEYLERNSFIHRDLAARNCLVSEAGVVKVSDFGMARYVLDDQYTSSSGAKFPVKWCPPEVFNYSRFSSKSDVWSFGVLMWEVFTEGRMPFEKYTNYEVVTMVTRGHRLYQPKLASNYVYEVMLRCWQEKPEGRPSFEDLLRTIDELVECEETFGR

Row | inhibition at 50 µM [%] | inhibition of FGF2 tyrosine phosphorylation | SMILES
1 | ~75 |  | COC(=O)c1c(C)[nH]c(C(=O)OCc2cc(=O)n3c(C)cccc3n2)c1C [compound #6]
2 |  | almost quantitative inhibition | CC(=O)c1c(C)[nH]c(C(=O)OCc2cc(=O)n3cc(Br)ccc3n2)c1C [compound #14]
3 |  | almost quantitative inhibition | CC(=O)c1c(C)[nH]c(C(=O)CSc2nc3cc(Cl)cnc3[nH]2)c1C [compound #21]

— patent publication US10842793B2, “Inhibitors of the unconventional secretion of fibroblast growth factor 2 (FGF2) by tumor cells and uses thereof” (Universität Heidelberg, priority 2016, dated 2020)
